The experiment addresses T1, TMPRSS4 serine protease (Homo sapiens, UniProt Q9NRS4).
T1 construct: TMPRSS4 serine protease domain (205th Val˜437th Leu) was cloned in pET21b/NdeI-XhoI; inferred from pET21b XhoI cloning and Ni-NTA purification) (C); made in house; host or cells: E. coli BL21 (DE3)
The experiment is described as follows: Inhibitory effect on TMPRSS4 serine protease activity using peptide substrate. The experiment is classed as biochemical. To be noted: kallikrein peptide substrate 100 μM, DMSO negative control; for inhibition at 30 µM: read-out: Intracellular protease activity Inhibition % 30 uM; for inhibition at 100 µM: read-out: Intracellular protease activity Inhibition % 100 uM; for inhibition at 10 µM / Intracellular protease activity Inhibition % 10 uM: 10 uM compound; for inhibition at 10 µM: read-out: Intracellular protease activity Inhibition % 10 uM. On the procedure:
TMPRSS4 serine protease domain (205th Val˜437th Leu) was cloned in pET21b/NdeI-XhoI, which was introduced in E. coli BL21 (DE3). At this time, FlagX2-enterokinase cleavage site ([…]; total 15 amino acids) was inserted in N-terminal of TMPRSS4 serine protease domain as shown in FIG. 1. The forward and reverse primers for PCR used for the cloning were presented by SEQ. ID. NO: 1 and NO: 2.
The cells were cultured in 10 ml of LB containing ampicillin at 37° C. overnight. IL of LB+ampicillin was added thereto, followed by further culture until OD reached 0.6˜0.8. 0.1 mM IPTG was added thereto, followed by further culture for 16 hours. Cell pellet was obtained, purified by Ni-NTA (Qiagen), and dialyzed. TMPRSS4 serine protease (pro-form) labeled with 2 mg of 2Xflag-enterokinase cleavage site was conjugated to Ni-NTA resin (4°, overnight). Enterokinase (NEB) was treated thereto at the concentration of 0.0002%/w/w at room temperature for 5 hours. The sample was washed, eluted with 50 mM imidazole in 20 mM of sodium phosphate buffer, and then dialyzed.
The protein activity was evaluated by measuring fluorescence shown during hydrolysis of the peptide. […] Reaction was induced after adding 100 μM of the peptide substrate into reaction buffer (50 mM Tris-HCl (pH 8.0), 10 mM CaCl2, 1 μM ZnCl2). Then, fluorescence was measured at 5 minutes interval (excitation 385 nm, emission 455 nm).
Then, fluorescence (excitation 385 nm/emission 455 nm) was measured at 5 minutes interval for 150 minutes. […] Dimethylsulfoxide (DMSO) was used as the negative control.

T1 sequence (Q9NRS4 205-437): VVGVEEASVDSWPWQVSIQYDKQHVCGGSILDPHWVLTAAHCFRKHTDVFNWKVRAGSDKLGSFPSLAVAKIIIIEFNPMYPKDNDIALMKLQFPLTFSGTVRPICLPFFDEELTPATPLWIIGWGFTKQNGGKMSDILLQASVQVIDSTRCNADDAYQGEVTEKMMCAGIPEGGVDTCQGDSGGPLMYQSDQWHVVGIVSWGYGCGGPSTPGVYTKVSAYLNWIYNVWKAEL

For the compound `O=C(Nc1ccc(Cl)nc1)c1cc(Cl)ccc1O` [Example 45, 5-chloro-N-(6-chloropyridine-3-yl)-2-hydroxybenzamide], the inhibition at 30 µM (30 uM compound) is 6%. In addition, for the setting “100 uM compound”, the inhibition at 100 µM turned out to be 39%.

On to `O=C(Nc1ncc(C(F)(F)F)cc1Cl)c1cc(Cl)ccc1O` [Example 46, 5-chloro-N-(3-chloro-5-(trifluoromethyl)pyridine-2-yl)-2-hydroxybenzamide], for which the inhibition at 30 µM (30 uM compound) turned out to be 0%. In addition, the inhibition at 100 µM (100 uM compound) turned out to be 0%.

In the case of `O=C(Nc1ccnc(Cl)c1)c1cc(Cl)ccc1O` [Example 47, 5-chloro-N-(2-chloropyridine-4-yl)-2-hydroxybenzamide], the inhibition at 30 µM (30 uM compound) came to 35%. In addition, the inhibition at 100 µM (100 uM compound) was determined as 21%.

With `Cc1cc(C)nc(NC(=O)c2cc(Cl)ccc2O)n1` [Example 48, 5-chloro-N-(4,6-dimethylpyrimidine-2-yl)-2-hydroxybenzamide], the inhibition at 30 µM (30 uM compound) stood at 0%. Moreover, the inhibition at 100 µM (100 uM compound) is 0%.

For the compound `O=C(Nc1ncccn1)c1cc(Cl)ccc1O` [Example 49, 5-chloro-2-hydroxy-N-(pyrimidine-2-yl)benzamide], the inhibition at 30 µM (30 uM compound) turned out to be 0%. In addition, for the setting “100 uM compound”, the inhibition at 100 µM was found to be 2%.

For the compound `Cc1csc(NC(=O)c2cc(Cl)ccc2O)n1` [Example 50, 5-chloro-2-hydroxy-N-(4-methylthiazole-2-yl)benzamide], the inhibition at 30 µM (30 uM compound) is 0%. For the same compound, the inhibition at 100 µM (100 uM compound) stood at 67%.

In the case of `O=C(Nc1nccs1)c1cc(Cl)ccc1O` [Example 51, 5-chloro-2-hydroxy-N-(thiazole-2-yl)benzamide], the inhibition at 30 µM (30 uM compound) was 44%. In addition, the inhibition at 100 µM (100 uM compound) stood at 90%.

With `O=C(Nc1nc(C(F)(F)F)cs1)c1cc(Cl)ccc1O` [Example 52, 5-chloro-2-hydroxy-N-(4-(trifluoromethyl)thiazole-2-yl)benzamide], the inhibition at 30 µM (30 uM compound) came to 61%. For the same compound, under “100 uM compound”, the inhibition at 100 µM was 100%.

As for `O=C(Nc1cc(C(F)(F)F)cc(C(F)(F)F)c1)c1ccc(Cl)cc1O` [Example 54, N-(3,5-bis(trifluoromethyl)phenyl)-4-chloro-2-hydroxybenzamide], the inhibition at 10 µM amounted to 29%. For the setting “30 uM compound”, the inhibition at 30 µM worked out at 74%.

For the compound `N#Cc1ccc(O)c(C(=O)Nc2cc(C(F)(F)F)cc(C(F)(F)F)c2)c1` [Example 56, N-(3,5-bis(trifluoromethyl)phenyl)-5-cyano-2-hydroxybenzamide], the inhibition at 10 µM worked out at 15%. Moreover, the inhibition at 30 µM (30 uM compound) came to 53%.

`CC(=O)Oc1ccc(Cl)cc1C(=O)Nc1cc(C(F)(F)F)cc(C(F)(F)F)c1` [Example 57, 2-(3,5-bis(trifluoromethyl)phenylcarbamoyl)-4-chlorophenylacetate]: the inhibition at 10 µM is 0%. For the same compound, the inhibition at 30 µM (30 uM compound) is 4%.

As to `O=C(Nc1cc(C(F)(F)F)cc(C(F)(F)F)c1)c1cc(Cl)ccc1OCc1ccccc1` [Example 58, 2-benzyloxy-N-(3,5-bis-trifluoromethyl-phenyl)-5-chlorobenzamide], the inhibition at 10 µM came to 0%. The inhibition at 30 µM (30 uM compound) stood at 6%.

For `O=C(Nc1ccccc1)c1cc(Cl)ccc1O` [Example 59, 5-chloro-2-hydroxy-N-phenylbenzamide], the inhibition at 30 µM (30 uM compound) is 13%. For the same compound, the inhibition at 100 µM (100 uM compound) came out at 75%.

For `Cc1cc(C)cc(NC(=O)c2cc(Cl)ccc2O)c1` [Example 60, 5-chloro-N-(3,5-dimethylphenyl)-2-hydroxybenzamide], the inhibition at 30 µM (30 uM compound) was determined as 44%. Also, the inhibition at 100 µM (100 uM compound) was found to be 56%.

Take `O=C(Nc1cc(Cl)cc(Cl)c1)c1cc(Cl)ccc1O` [Example 61, 5-chloro-N-(3,5-dichlorophenyl)-2-hydroxybenzamide]: the inhibition at 10 µM amounted to 15%. The inhibition at 30 µM (30 uM compound) came out at 58%.

As to `O=C(Nc1ccc(C(F)(F)F)c(C(F)(F)F)c1)c1cc(Cl)ccc1O` [Example 62, N-(3,4-bis(trifluoromethyl)phenyl)-5-chloro-2-hydroxybenzamide], the inhibition at 10 µM came out at 37%. Moreover, where the note is “30 uM compound”, the inhibition at 30 µM amounted to 59%.

As for `O=C(Nc1ccc(Br)c(C(F)(F)F)c1)c1cc(Cl)ccc1O` [Example 63, N-(4-bromo-3-(trifluoromethyl)phenyl)-5-chloro-2-hydroxybenzamide], the “Intracellular protease activity Inhibition % 10 uM” value is recorded as 30%. Further, the “Intracellular protease activity Inhibition % 30 uM” value (30 uM compound) was 46%. In addition, the “Intracellular protease activity Inhibition % 100 uM” value (100 uM compound) came to 98%.

In the case of `O=C(Nc1cc(C(F)(F)F)ccc1F)c1cc(Cl)ccc1O` [Example 64, 5-chloro-N-(2-fluoro-5-(trifluoromethyl)phenyl)-2-hydroxybenzamide], the “Intracellular protease activity Inhibition % 10 uM” value was found to be 67%. For the same compound, the inhibition at 100 µM (100 uM compound) was 100%.

With `O=C(Nc1cc(Cl)c(Cl)c(Cl)c1)c1cc(Cl)ccc1O` [Example 66, 5-chloro-2-hydroxy-N-(3,4,5-trichloro-phenyl)benzamide], the inhibition at 10 µM was found to be 6%. Moreover, the inhibition at 30 µM (30 uM compound) is 23%.

In the case of `O=C(Nc1cc(C(F)(F)F)cc(C(F)(F)F)c1)c1cc(Cl)cnc1O` [Example 67, N-(3,5-bis(trifluoromethyl)phenyl)-5-chloro-2-hydroxynicotineamide], the inhibition at 10 µM was 0%. Moreover, where the note is “30 uM compound”, the inhibition at 30 µM came to 19%.

On to `O=C(Nc1cc(C(F)(F)F)cc(C(F)(F)F)c1)c1cnc2ccccc2c1O` [Example 68, N-(3,5-bis(trifluoromethyl)phenyl)-4-hydroxyquinoline-3-carboxamide], for which the inhibition at 10 µM worked out at 0%. For the setting “30 uM compound”, the inhibition at 30 µM was 0%.

In the case of `O=C(NC1=NCCS1)c1cc(Cl)ccc1O` [Example 69, 5-chloro-N-(4,5-dihydrothiazol-2-yl)-2-hydroxybenzamide], the inhibition at 10 µM came to 17%.

For the compound `O=C(Nc1nc2c(s1)CCCC2)c1cc(Cl)ccc1O` [Example 70, 5-chloro-2-hydroxy-N-(4,5,6,7-tetrahydrobenzo[d]thiazol-2-yl)benzamide], the “Intracellular protease activity Inhibition % 10 uM” value is recorded as 77%.

As for `Cc1cnc(NC(=O)c2cc(Cl)ccc2O)s1` [Example 71, 5-chloro-2-hydroxy-N-(5-methylthiazole-2-yl)benzamide], the “Intracellular protease activity Inhibition % 10 uM” value is reported as 66% and the inhibition at 10 µM fell in the range of 51 to 100%.

As to `Cc1nc(NC(=O)c2cc(Cl)ccc2O)sc1C` [Example 72, 5-chloro-N-(4,5-dimethylthiazol-2-yl)-2-hydroxybenzamide], the inhibition at 10 µM is 16%.

Turning to `CC1CN(Cc2csc(NC(=O)c3cc(Cl)ccc3O)n2)CC(C)O1` (centres unmarked) [Example 73, 5-chloro-N-(4-((2,6-dimethylmorpholino)methyl)thiazol-2-yl)-2-hydroxybenzamide], the “Intracellular protease activity Inhibition % 10 uM” value is recorded as 85%.

Turning to `Cn1ccc(NC(=O)c2cc(Cl)ccc2O)n1` [Example 74, 5-chloro-2-hydroxy-N-(1-methyl-1H-pyrazol-3-yl)benzamide], the inhibition at 10 µM was 14%.

With `Cc1nc(NC(=O)c2cc(Cl)ccc2O)n[nH]1` [Example 75, 5-chloro-2-hydroxy-N-(5-methyl-1H-1,2,4-triazol-3-yl)benzamide], the “Intracellular protease activity Inhibition % 10 uM” value was 58% and the inhibition at 10 µM fell in the range of 51 to 100%.

As to `O=C(Nc1nc(-c2cccnc2)cs1)c1cc(Cl)ccc1O` [Example 76, 5-chloro-2-hydroxy-N-(4-(pyridin-3-yl)thiazol-2-yl)benzamide], the inhibition at 10 µM is 30%.

Source of the values: US9266872B2, “2-hydroxyarylamide derivative or pharmaceutically acceptable salt thereof, preparation method thereof, and pharmaceutical composition for preventing or treating cancer containing same as active ingredient” (KOREA RESEARCH INSTITUTE OF BIOSCIENCE AND BIOTECHNOLOGY, priority 2011, dated 2016).
